Source: patent publication EP1216043B1, “RETARD FORM CONTAINING ALPHA-LIPOIC ACID (DERIVATIVES)” (priority 1999, dated 2001)
Where two headings read alike, the source gives them in different places.

Assays:
[1] = cited from earlier work; for Cmax / F (Bioverfügbarkeit) / t1/2 / tmax: peroral, arithmetic mean; for absolute Bioverfügbarkeit: clinical studies, range over the dosage forms of Tabelle 1
[2] = Diffusion study: diffusion of α-Liponsäure out of a dialysis vessel with/without Chitosan and Essigsäure
Text: Bei der vorliegenden Diffusionsstudie wurde der Einfluss von Chitosan auf das Diffusionsverhalten von α-Liponsäure untersucht.

[3] = 200 mg (±)-Liponsäure als 200 mg-Tablette
[4] = 200 mg (±)-Liponsäure als 4x50 mg-Tabletten
[5] = 200 mg (±)-Liponsäure als Lösung

Row | Compound | Plasma-Halbwertszeit ([1]; after peroral administration) | share of the Konzentrationsgleichgewicht reached ([2]; in presence of Chitosan, without Essigsäure, ca. 5 hours) | time until Konzentrationsgleichgewicht der α-Liponsäure innerhalb und außerhalb des Dialysegefäßes was reached ([2]; ohne Chitosan, printed as 'ca.') | Cmax [1, 3] | F (Bioverfügbarkeit) [1, 3] | t1/2 [1, 3] | tmax [1, 3] | Cmax [1, 4] | F (Bioverfügbarkeit) [1, 4] | t1/2 [1, 4] | tmax [1, 4] | Cmax [1, 5] | F (Bioverfügbarkeit) [1, 5] | t1/2 [1, 5] | tmax [1, 5] | absolute Bioverfügbarkeit [1]
1 | O=C(O)CCCCC1CCSS1 (racemic) [α-Liponsäure, 1,2-Dithiolan-3-pentansäure] | weniger als zwei Stunden | 63,8 % ± 4,3 | ≤ 5 Stunden | – | – | – | – | – | – | – | – | – | – | – | – | –
2 | O=C(O)CCCC[C@@H]1CCSS1 [R, R-(+)-α-Liponsäure] | – | – | – | 490 ng/mL | 24.1% | 19.8 min | 54 min | 600 ng/mL | 25.9% | 42.6 min | 42 min | 2240 ng/mL | 38.2% | 14.4 min | 12.6 min | 24.1 - 38.2%
3 | O=C(O)CCCC[C@H]1CCSS1 [S, S-(-)-α-Liponsäure] | – | – | – | 310 ng/mL | 19.1% | 19.8 min | 54 min | 380 ng/mL | 20.9% | 49.2 min | 42 min | 1320 ng/mL | 28.3% | 9 min | 12.6 min | 19.1 - 28.3%
